Experimental data from article PMC9934367, “Functional impact of subunit composition and compensation on Drosophila melanogaster nicotinic receptors–targets of neonicotinoids” (PLOS Genetics, 2023).

Test system: D. melanogaster nAChRs
Assay: Comparison of agonist activity between nAChRs expressed in X. laevis oocytes (one-way ANOVA, Kruskal-Wallis)
Type: cell-based
Experimental: We minimised the use of X. laevis according to the UK Animals (Scientific Procedures) Act, 1986. […] Oocytes were defolliculated after collagenase treatment in Ca^2+-free standard oocyte saline (Ca^2+-free SOS). cRNAs of the nAChR subunits and co-factors mixed at a concentration of 0.1 mg/mL was injected into oocytes at a volume of 50 nL. Then the oocytes were incubated in the incubation medium (SOS supplemented with sodium pyruvate (Nacalai Tesque, #13058–12), penicillin-streptomycin (MilliporeSigma, #P4333), gentamycin (Nacalai Tesque, #16672–04), and 4% horse serum (Thermo Fisher Scientific, #26050–070) for 3−4 days prior to electrophysiology.
Each defolliculated X. laevis oocyte was secured in a Perspex recording chamber and perfused with the standard oocyte saline (SOS) containing 0.5 μM atropine (SOSA) at a flow rate of 7−10 mL/min [48]. Two glass electrodes filled with 2 M KCl were impaled into each oocyte and the membrane potential was clamped at -100 mV. […] The peak amplitude of the response was measured and analysed by pCLAMP (Molecular Devices, USA).
Y=Imax/1+10^(logEC50‐X)nH
Where Y is the normalised response, X is log[ligand (M)], EC50 is the half maximal concentration (M), Imax is the maximum normalised response and nH is the Hill coefficient.
Prism software was employed for the statistical analyses. […] One-way ANOVA was used to analyse the differences of the ligand agonist activity in terms of pEC50 on the various nAChRs expressed in X. laevis as well as data obtained with D. melanogaster larvae and adults.

[1] = Dα1/Dα2/Dα3/Dβ1/Dβ2 vs. Dα1/Dα2/Dβ1/Dβ2/Dβ3
[2] = Dα1/Dα2/Dα3/Dβ1/Dβ2 vs. Dα1/Dα3/Dα4/Dβ1/Dβ2
[3] = Dα1/Dα2/Dα3/Dβ1/Dβ2 vs. Dα1/Dα3/Dβ1/Dβ2/Dβ3
[4] = Dα1/Dα2/Dα3/Dβ1/Dβ2 vs. Dα2/Dα3/Dα4/Dβ1/Dβ2
[5] = Dα1/Dα2/Dα3/Dβ1/Dβ2 vs. Dα2/Dα3/Dβ1/Dβ2/Dβ3
[6] = Dα1/Dα2/Dα3/Dβ1 vs. Dα1/Dα2/Dα3/Dβ1/Dβ2
[7] = Dα1/Dα2/Dα3/Dβ1 vs. Dα1/Dα2/Dβ1/Dβ2
[8] = Dα1/Dα2/Dα3/Dβ1 vs. Dα1/Dα3/Dβ1/Dβ2
[9] = Dα1/Dα2/Dα3/Dβ1 vs. Dα1/Dβ1/Dβ2
[10] = Dα1/Dα2/Dα3/Dβ1 vs. Dα2/Dα3/Dβ1/Dβ2
[11] = Dα1/Dα2/Dα3/Dβ1 vs. Dα3/Dβ1/Dβ2
[12] = Dα1/Dα2/Dβ1/Dβ2 vs. Dα1/Dα2/Dα3/Dβ1/Dβ2
[13] = Dα1/Dα2/Dβ1/Dβ2 vs. Dα2/Dα3/Dβ1/Dβ2
[14] = Dα1/Dα2/Dβ1 vs. Dα1/Dα2/Dα3/Dβ1
[15] = Dα1/Dα2/Dβ1 vs. Dα1/Dα2/Dα3/Dβ1/Dβ2
[16] = Dα1/Dα2/Dβ1 vs. Dα1/Dα2/Dβ1/Dβ2
[17] = Dα1/Dα2/Dβ1 vs. Dα1/Dα3/Dβ1/Dβ2
[18] = Dα1/Dα2/Dβ1 vs. Dα2/Dα3/Dβ1/Dβ2
[19] = Dα1/Dα3/Dβ1/Dβ2 vs. Dα1/Dα2/Dα3/Dβ1/Dβ2
[20] = Dα1/Dα3/Dβ1/Dβ2 vs. Dα1/Dα2/Dβ1/Dβ2
[21] = Dα1/Dα3/Dβ1/Dβ2 vs. Dα2/Dα3/Dβ1/Dβ2
[22] = Dα1/Dα3/Dβ1 vs. Dα1/Dα2/Dα3/Dβ1
[23] = Dα1/Dα3/Dβ1 vs. Dα1/Dα2/Dα3/Dβ1/Dβ2
[24] = Dα1/Dα3/Dβ1 vs. Dα1/Dα2/Dβ1/Dβ2
[25] = Dα1/Dα3/Dβ1 vs. Dα1/Dα3/Dβ1/Dβ2
[26] = Dα1/Dα3/Dβ1 vs. Dα2/Dα3/Dβ1/Dβ2
[27] = Dα1/Dβ1/Dβ2 vs. Dα1/Dα2/Dα3/Dβ1/Dβ2
[28] = Dα1/Dβ1/Dβ2 vs. Dα1/Dα2/Dβ1/Dβ2

SMILES: O=[N+]([O-])NC1=NCCN1Cc1ccc(Cl)nc1 [Imidacloprid, imidacloprid]
- Difference of Imax values, nAChRs compared (Dα1/Dα2/Dα3/Dβ1/Dβ2 vs. Dα1/Dα2/Dα4/Dβ1/Dβ2): -0.030
- Difference of Imax values, nAChRs compared [1]: 0.062
- Difference of pEC50 values, nAChRs compared [1]: 0.21
- Difference of Imax values, nAChRs compared [2]: 0.041
- Difference of pEC50 values, nAChRs compared [2]: -0.83
- Difference of Imax values, nAChRs compared [3]: 0.002
- Difference of pEC50 values, nAChRs compared [3]: -1.25
- Difference of Imax values, nAChRs compared [4]: 0.115
- Difference of pEC50 values, nAChRs compared [4]: -0.93
- Difference of Imax values, nAChRs compared [5]: 0.121
- Difference of pEC50 values, nAChRs compared [5]: -1.28
- Difference of Imax values [6]: -0.048
- Difference of pEC50 values [6]: 0.61
- Difference of Imax values [7]: -0.071
- Difference of pEC50 values [7]: 0.63
- Difference of Imax values [8]: -0.236
- Difference of pEC50 values [8]: -0.44
- Difference of Imax values [9]: 0.018
- Difference of pEC50 values [9]: 0.09
- Difference of Imax values [10]: -0.031
- Difference of pEC50 values [10]: 0.08
- Difference of Imax values [11]: 0.055
- Difference of pEC50 values [11]: -1.20
- Difference of Imax values [12]: 0.023
- Difference of pEC50 values [12]: -0.02
- Difference of Imax values [13]: 0.040
- Difference of pEC50 values [13]: -0.55
- Difference of Imax values [14]: -0.063
- Difference of pEC50 values [14]: -0.37
- Difference of Imax values [15]: -0.111
- Difference of pEC50 values [15]: 0.24
- Difference of Imax values [16]: -0.134
- Difference of pEC50 values [16]: 0.26
- Difference of Imax values [17]: -0.299
- Difference of pEC50 values [17]: -0.81
- Difference of Imax values (Dα1/Dα2/Dβ1 vs. Dα1/Dβ1/Dβ2): -0.045
- Difference of pEC50 values (Dα1/Dα2/Dβ1 vs. Dα1/Dβ1/Dβ2): -0.28
- Difference of Imax values (Dα1/Dα2/Dβ1 vs. Dα2/Dα3/Dβ1): -0.070
- Difference of pEC50 values (Dα1/Dα2/Dβ1 vs. Dα2/Dα3/Dβ1): -0.17
- Difference of Imax values [18]: -0.094
- Difference of pEC50 values [18]: -0.29
- Difference of Imax values (Dα1/Dα2/Dβ1 vs. Dα3/Dβ1/Dβ2): -0.008
- Difference of pEC50 values (Dα1/Dα2/Dβ1 vs. Dα3/Dβ1/Dβ2): -1.57
- Difference of Imax values [19]: 0.188
- Difference of pEC50 values [19]: 1.05
- Difference of Imax values [20]: 0.165
- Difference of pEC50 values [20]: 1.07
- Difference of Imax values [21]: 0.205
- Difference of pEC50 values [21]: 0.52
- Difference of Imax values [22]: 0.076
- Difference of pEC50 values [22]: 0.50
- Difference of Imax values [23]: 0.028
- Difference of pEC50 values [23]: 1.11
- Difference of Imax values (Dα1/Dα3/Dβ1 vs. Dα1/Dα2/Dβ1): 0.139
- Difference of pEC50 values (Dα1/Dα3/Dβ1 vs. Dα1/Dα2/Dβ1): 0.87
- Difference of Imax values [24]: 0.005
- Difference of pEC50 values [24]: 1.13
- Difference of Imax values [25]: -0.160
- Difference of pEC50 values [25]: 0.06
- Difference of Imax values (Dα1/Dα3/Dβ1 vs. Dα1/Dβ1/Dβ2): 0.094
- Difference of pEC50 values (Dα1/Dα3/Dβ1 vs. Dα1/Dβ1/Dβ2): 0.59
- Difference of Imax values (Dα1/Dα3/Dβ1 vs. Dα2/Dα3/Dβ1): 0.069
- Difference of pEC50 values (Dα1/Dα3/Dβ1 vs. Dα2/Dα3/Dβ1): 0.70
- Difference of Imax values [26]: 0.045
- Difference of pEC50 values [26]: 0.58
- Difference of Imax values (Dα1/Dα3/Dβ1 vs. Dα3/Dβ1/Dβ2): 0.131
- Difference of pEC50 values (Dα1/Dα3/Dβ1 vs. Dα3/Dβ1/Dβ2): -0.70
- Difference of Imax values [27]: -0.066
- Difference of pEC50 values [27]: 0.52
- Difference of Imax values [28]: -0.089
- Difference of pEC50 values [28]: 0.54
